In publication PMC9737349, “Discovery of 5-Methylthiazole-Thiazolidinone Conjugates as Potential Anti-Inflammatory Agents: Molecular Target Identification and In Silico Studies” (Molecules, 2022):

Key:
[1] = system: carrageenan-induced mouse paw edema; assay: Carrageenan-induced mouse paw oedema; format: in vivo; settings: mice, i.p. 0.15 mmol/kg 5 min before carrageenan, paw weight increase after 3.5 h; for inhibition in vivo at 150 µmol/kg: Mus musculus, ip
Experimental: For the study of possible anti-inflammatory action, the swelling caused in the sole of the right hind limb by intradermal administration of carrageenan was used as a model of inflammation. Carrageenan-induced edema is a non-specific inflammation that results from a number of different transmitters and resembles human acute inflammation.
The animals were weighed and divided into control, standard and test groups. Each group contained 10 mice. […] An aqueous solution of carrageenan 0.1 mL, 1% w/v) was injected subcutaneously to the sub-plantar region of the right hind paw, with the left paw as control. The tested compounds (suspended in water with a few drops of Tween 80) were given i.p. (0.15 mmol/kg) 5 min before the carrageenan administration. After 3.5 h, the hind paws were excised and were weighed separately. The produced oedema was estimated as a paw weight increase.

human recombinant COX-2 = molecular target: T1, human recombinant COX-2 (Homo sapiens, UniProt P35354); assay: Inhibition of COX-2 activity (Cayman COX Inhibitor Screening Assay kit); format: biochemical; settings: read-out: Inhibition, COX-2, Inhibition (%) 200 μM
T1 construct: purchased Cayman Chemical Co., Ann Arbor, MI
T1 sequence (P35354 18-604): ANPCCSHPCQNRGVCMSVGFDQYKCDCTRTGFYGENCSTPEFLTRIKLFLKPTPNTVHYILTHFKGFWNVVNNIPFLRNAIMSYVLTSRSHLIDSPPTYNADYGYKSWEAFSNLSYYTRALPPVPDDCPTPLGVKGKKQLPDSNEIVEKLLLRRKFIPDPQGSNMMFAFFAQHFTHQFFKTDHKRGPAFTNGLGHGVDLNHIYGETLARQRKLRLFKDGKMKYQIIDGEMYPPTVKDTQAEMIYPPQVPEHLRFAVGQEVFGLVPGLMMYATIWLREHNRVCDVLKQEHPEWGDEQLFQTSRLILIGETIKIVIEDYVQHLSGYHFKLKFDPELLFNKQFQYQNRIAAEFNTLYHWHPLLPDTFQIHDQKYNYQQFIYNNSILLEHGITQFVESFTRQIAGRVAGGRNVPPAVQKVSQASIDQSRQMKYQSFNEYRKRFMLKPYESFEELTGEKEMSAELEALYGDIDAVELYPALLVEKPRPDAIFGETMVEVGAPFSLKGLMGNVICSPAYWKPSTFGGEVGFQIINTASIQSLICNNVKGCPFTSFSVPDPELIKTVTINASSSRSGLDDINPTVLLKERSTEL
Experimental: (§1) The effect of compounds on COX-1 and COX-2 inhibition was measured using a commercial kit provided by Cayman (Cayman Chemical Co., Ann Arbor, MI), applying the instructions of the manufacturer. The kit uses ovine COX-1 and human recombinant COX-2 enzymes. […] The assay measures PGF2a produced by SnCl2 reduction of COX-derived PGH2.

ovine COX-1 = molecular target: T2, ovine COX-1 (Ovis aries, UniProt P05979); assay: Inhibition of COX-1 activity (Cayman COX Inhibitor Screening Assay kit); format: biochemical
T2 construct: purchased Cayman Chemical Co., Ann Arbor, MI
T2 sequence (P05979 25-600): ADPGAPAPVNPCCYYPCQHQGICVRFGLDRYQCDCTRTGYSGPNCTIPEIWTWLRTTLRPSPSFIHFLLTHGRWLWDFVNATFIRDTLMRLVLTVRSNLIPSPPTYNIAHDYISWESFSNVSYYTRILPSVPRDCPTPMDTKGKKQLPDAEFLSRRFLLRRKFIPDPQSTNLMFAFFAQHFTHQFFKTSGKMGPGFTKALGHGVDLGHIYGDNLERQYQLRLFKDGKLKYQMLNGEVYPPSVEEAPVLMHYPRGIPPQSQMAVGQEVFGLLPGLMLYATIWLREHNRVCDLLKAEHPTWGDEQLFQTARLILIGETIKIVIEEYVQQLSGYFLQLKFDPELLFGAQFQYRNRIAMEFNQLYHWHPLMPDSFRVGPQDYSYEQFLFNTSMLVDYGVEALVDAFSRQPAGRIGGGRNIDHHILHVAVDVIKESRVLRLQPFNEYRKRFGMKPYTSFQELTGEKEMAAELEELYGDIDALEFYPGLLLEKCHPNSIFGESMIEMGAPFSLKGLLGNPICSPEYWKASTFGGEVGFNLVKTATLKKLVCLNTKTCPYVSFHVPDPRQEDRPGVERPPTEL
Experimental: as §1

soybean LOX = molecular target: T3, soybean LOX (Glycine max, UniProt P08170); assay: Inhibition of LOX activity; format: biochemical
T3 construct: purchased Sigma (St. Louis, MO, USA)
T3 sequence (P08170 1-839): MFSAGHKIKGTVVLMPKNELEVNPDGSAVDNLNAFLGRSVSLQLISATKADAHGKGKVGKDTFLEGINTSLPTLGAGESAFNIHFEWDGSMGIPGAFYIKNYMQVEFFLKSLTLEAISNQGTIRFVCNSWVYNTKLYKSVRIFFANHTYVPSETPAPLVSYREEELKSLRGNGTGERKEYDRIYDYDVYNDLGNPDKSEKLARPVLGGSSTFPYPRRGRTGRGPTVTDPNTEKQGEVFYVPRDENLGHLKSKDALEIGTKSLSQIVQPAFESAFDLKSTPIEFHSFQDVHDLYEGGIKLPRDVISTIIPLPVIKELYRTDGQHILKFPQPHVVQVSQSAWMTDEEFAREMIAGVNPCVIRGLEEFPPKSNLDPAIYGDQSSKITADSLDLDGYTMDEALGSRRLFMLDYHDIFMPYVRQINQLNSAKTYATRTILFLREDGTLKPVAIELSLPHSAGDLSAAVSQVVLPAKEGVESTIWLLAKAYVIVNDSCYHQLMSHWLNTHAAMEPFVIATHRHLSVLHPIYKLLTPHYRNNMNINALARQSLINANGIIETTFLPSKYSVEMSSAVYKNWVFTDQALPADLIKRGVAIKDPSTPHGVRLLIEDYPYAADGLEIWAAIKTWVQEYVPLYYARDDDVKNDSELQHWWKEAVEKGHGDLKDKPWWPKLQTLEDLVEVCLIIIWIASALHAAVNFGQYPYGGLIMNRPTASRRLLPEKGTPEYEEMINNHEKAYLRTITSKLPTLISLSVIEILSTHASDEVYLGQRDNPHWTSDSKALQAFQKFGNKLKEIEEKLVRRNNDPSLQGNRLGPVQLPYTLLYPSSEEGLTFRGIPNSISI
Experimental: The reaction mixture contained (final concentration 300 μM) the test compounds, dissolved in absolute ethanol (10–300 μM), or the solvent (control), soybean LOX, dissolved in 0.9% NaCl solution (250 u/mL) and sodium linoleate (100 μM), in Tris-HCl buffer, pH 9.0. The reaction was followed for 7 min at 28 °C, recording the absorbance (234 nm) of a conjugated diene structure, due to the formation of 13-hydroperoxy-linoleic acid. […] For the estimation of the type of inhibition, the above experiments were repeated, using 1 mM sodium linoleate, which is higher than the saturating substrate concentration.

With Cc1cnc(N=C2NC(=O)C(=Cc3ccccc3O)S2)s1 [Compound 2] as the compound, how does the inhibition in vivo at 150 µmol/kg [1] read?
The inhibition in vivo at 150 µmol/kg was 43.1 ± 1.9%.

How did the inhibition in vivo at 150 µmol/kg [1] turn out when Cc1cnc(N=C2NC(=O)C(=Cc3ccc(Br)cc3)S2)s1 [Compound 17] was run?
Its inhibition in vivo at 150 µmol/kg is 41.4 ± 1.9%.

Cc1cnc(N=C2NC(=O)C(=Cc3ccc([N+](=O)[O-])cc3)S2)s1 [Compound 8] was tested. Which inhibition at 200 µM (human recombinant COX-2) did it give?
Its inhibition at 200 µM is 0%.

What about the IC50 (ovine COX-1) of the same compound?
Its IC50 is 14400 ± 700 nM.

And the inhibition at 200 µM (ovine COX-1)?
The inhibition at 200 µM was 100%.

What about the inhibition at 100 µM (soybean LOX) of the same compound?
The inhibition at 100 µM was 7.88 ± 2.1%.

What about the inhibition in vivo at 150 µmol/kg [1] of the same compound?
The inhibition in vivo at 150 µmol/kg was 55.4%.

And the “Oedema Inhibition (%)” value [1]?
Its value is 55.4 ± 1.5 %.

Which inhibition at 200 µM (human recombinant COX-2) does the source give for Cc1cnc(N=C2NC(=O)C(=Cc3cccc(Cl)c3Cl)S2)s1 [Compound 13] here?
The inhibition at 200 µM was 0%.

And the IC50 (ovine COX-1)?
The IC50 was 1100 ± 300 nM.

What about the inhibition at 200 µM (ovine COX-1) of the same compound?
Its inhibition at 200 µM is 100%.

And the inhibition at 100 µM (soybean LOX)?
The inhibition at 100 µM was 37.2 ± 1.8%.

And the inhibition in vivo at 150 µmol/kg [1]?
The inhibition in vivo at 150 µmol/kg was 57.8%.

And the “Oedema Inhibition (%)” value [1]?
Its value is 57.8 ± 1.3 %.

For Cc1cnc(N=C2NC(=O)C(=Cc3ccc(Cl)cc3)S2)s1 [Compound 12], which inhibition in vivo at 150 µmol/kg [1] is on record?
The inhibition in vivo at 150 µmol/kg was 55.6%.

What about the “Oedema Inhibition (%)” value [1] of the same compound?
Its value is 55.6 ± 1.5 %.

Cc1cnc(N=C2NC(=O)C(=Cc3ccc(F)cc3)S2)s1 [Compound 10] was tested. Which inhibition in vivo at 150 µmol/kg [1] did it give?
The inhibition in vivo at 150 µmol/kg was 47.8 ± 1.6%.

For Cc1cnc(N=C2NC(=O)C(=Cc3ccccc3)S2)s1 [Compound 1], which inhibition in vivo at 150 µmol/kg [1] is on record?
Its inhibition in vivo at 150 µmol/kg is 51.6 ± 1.5%.

Which results are given for Cc1cnc(N=C2NC(=O)C(=Cc3ccc(O)cc3)S2)s1 [Compound 3]?
inhibition in vivo at 150 µmol/kg [1]: 31.4%; Oedema Inhibition (%) [1]: 31.4 ± 2.3 %

With Cc1cnc(N=C2NC(=O)C(=Cc3ccccc3Cl)S2)s1 [Compound 11] as the compound, how does the inhibition in vivo at 150 µmol/kg [1] read?
Its inhibition in vivo at 150 µmol/kg is 43 ± 1.7%.

Which inhibition in vivo at 150 µmol/kg [1] does the source give for Cc1cnc(N=C2NC(=O)C(=Cc3ccc(Cl)cc3Cl)S2)s1 [Compound 14] here?
Its inhibition in vivo at 150 µmol/kg is 35.2 ± 2.1%.

How did the inhibition at 200 µM (human recombinant COX-2) turn out when COc1ccc2cc([C@H](C)C(=O)O)ccc2c1 [Naproxen, reference compound] was run?
Its inhibition at 200 µM is 17 ± 2.3%.

For Cc1cnc(N=C2NC(=O)C(=Cc3ccccc3[N+](=O)[O-])S2)s1 [Compound 6], which inhibition in vivo at 150 µmol/kg [1] is on record?
Its inhibition in vivo at 150 µmol/kg is 48.7 ± 1.8%.

For Cc1cnc(N=C2NC(=O)C(=Cc3cccc([N+](=O)[O-])c3)S2)s1 [Compound 7], which inhibition in vivo at 150 µmol/kg [1] is on record?
The inhibition in vivo at 150 µmol/kg was 54.5 ± 1.4%.

How did the inhibition at 200 µM (human recombinant COX-2) turn out when Cc1cnc(N=C2NC(=O)C(=Cc3cccc(Br)c3)S2)s1 [Compound 16] was run?
Its inhibition at 200 µM is 0%.

And the IC50 (ovine COX-1)?
Its IC50 is 1080 ± 300 nM.

And the inhibition at 200 µM (ovine COX-1)?
The inhibition at 200 µM was 100%.

And the inhibition at 100 µM (soybean LOX)?
The inhibition at 100 µM was 46.7 ± 1.5%.

And the inhibition in vivo at 150 µmol/kg [1]?
The inhibition in vivo at 150 µmol/kg was 57.6%.

What about the “Oedema Inhibition (%)” value [1] of the same compound?
The value was 57.6 ± 1.4 %.

With COc1ccc(OC)c(C=C2SC(=Nc3ncc(C)s3)NC2=O)c1 [Compound 5] as the compound, how does the inhibition in vivo at 150 µmol/kg [1] read?
Its inhibition in vivo at 150 µmol/kg is 44.9 ± 1.7%.

With Cc1cnc(N=C2NC(=O)C(=Cc3cccc(F)c3)S2)s1 [Compound 9] as the compound, how does the inhibition in vivo at 150 µmol/kg [1] read?
The inhibition in vivo at 150 µmol/kg was 34.8 ± 2.1%.

For COc1ccc(C=C2SC(=Nc3ncc(C)s3)NC2=O)cc1 [Compound 4], which inhibition in vivo at 150 µmol/kg [1] is on record?
The inhibition in vivo at 150 µmol/kg was 48.3 ± 1.8%.

How did the inhibition in vivo at 150 µmol/kg [1] turn out when Cc1cnc(N=C2NC(=O)C(=Cc3c(Cl)cccc3Cl)S2)s1 [Compound 15] was run?
Its inhibition in vivo at 150 µmol/kg is 39.4 ± 2.3%.
